Values of other authors, collected in US20080089854A1, “Skin care compositions” (priority 2006, published 2008).

Key:
[1] = topical application
[2] = animal studies

O=C(O)CCCCCCCC(=O)O [azelaic acid]
share of topically applied azelaic acid that is absorbed [1]: about 3.6% | adverse effects on fertility or reproduction [2]: no adverse effects
